Row | Structure (SMILES) | melting point [°C]
1 | COc1ccc(S(=O)(=O)N(Cc2cccnc2)c2c(C(=O)O)cnc3c2c(C)nn3C)cc1 | 256 to 258
2 | Nc1nc(N)c(-c2cc(Cl)cc(Cl)c2Cl)nc1Br | 222 to 224
3 | O=c1[nH]c2ccccc2n1C1CCN(C[C@@H]2CO[C@@H](c3ccc(F)cc3)C2)CC1 (relative stereo) | 154 to 155
4 | Cc1[nH]c(C)c2c1C(C)(C)CC2(C)C#N (stereo not given) | 130 to 140
5 | CCOCc1nc2c(N)nc(C)cc2n1CCCCNS(C)(=O)=O | 162 to 164
6 | CC1CC2=C(CCC(O)C2)C2CCC3(C)C(CO)CCC3C12 (stereo not given) | 64 to 70
7 | O=C1CCN2C(=O)c3cccc(-n4c(=O)[nH]c5cnccc5c4=O)c3C2C1 (stereo not given) | 230
8 | CC(C)N1CC(OCC2CC2)(C(F)(F)F)c2cc(Cl)ccc2NC1=O (stereo not given) | 170
9 | C#CCOc1cc(NN=C2CCCCN2C(=O)OC)c(Cl)cc1Cl | 137 to 138
10 | O=C(NCCO)c1cccc(-c2ccc3cnn(-c4ccc(Cl)cc4Cl)c3n2)c1 | 169 to 170
11 | CC(C)(O)COc1c(-c2ccc(S(N)(=O)=O)cc2)cnn(-c2ccc(F)c(F)c2)c1=O | 65 to 69
12 | c1ccc2cc(NC3=NCC4(CN5CCC4CC5)O3)ncc2c1 (stereo not given) | 196 to 200
13 | CC1=C(C)CC2C(C1)C(=O)NS2=O (stereo not given) | 135 to 137
14 | CCCCOC(=O)c1ccc(NC2=NC3=NC(Nc4ccc(C(=O)OCCCC)cc4)=NC4=NC(Nc5ccc(C(=O)OCCCC)cc5)=NC(=N2)N34)cc1 | 289 to 290
15 | CCCc1nc2c(N)nc3cc(OCc4ccc(C(F)(F)F)cc4)ccc3c2n1CC(C)C | 192 to 194
16 | CS(=O)c1c(C2(C)NCCS2)nn(-c2c(Cl)cc(C(F)(F)F)cc2Cl)c1N (stereo not given) | 85
17 | CSC(=C[N+](=O)[O-])NCCCCc1nccs1 | 75.5 to 76
18 | CC(=O)c1cc(C2CCCCC2)ccc1O | < 50
19 | COc1ccc(C2(c3ccc(N(C)C)cc3)OC(=O)c3ccc(N(C)C)cc32)cc1 (stereo not given) | 156 to 161
20 | Cc1cnc(N2CCN(CC[C@H]3CC[C@H](NC(=O)CC4CCOCC4)CC3)CC2)c2ccoc12 | 206
21 | CNC(=O)C=C1CC2(CCCC2)c2ccccc21 | 178
22 | COc1c(CN2CCOCC2)cccc1-c1nc2c(N[C@H]3[C@@H](C(N)=O)[C@@H]4C=C[C@H]3C4)c(Cl)cnc2[nH]1 | 133 to 137
23 | Cc1oc(C=Cc2cccc(C(F)(F)F)c2)nc1CCl | 99 to 100
24 | CCCCNC(=O)c1ccc(Cl)c(-n2nc(CCCC)n(Cc3ccc(Br)cc3F)c2=O)c1 | 114 to 116
25 | CN1CC(CCN2CCOCC2)N(C)c2nc3ccccc3n2C1=O (stereo not given) | 149 to 152

Row | Structure (SMILES) | melting point [°C]
26 | COC(=O)c1ccc(OCCCc2ccccc2)cc1 | 61 to 61.5
27 | C=C=COc1ccc2ccc(OC=C=C)cc2c1 | 80.5 to 83.5
28 | Cn1cc(-c2ccccc2)c(=O)c(-c2cc(C(F)(F)F)ccc2Cl)c1 | 150 to 152
29 | O=c1oc2ccc(Cl)cc2cc1S(=O)(=O)Cc1ccc(Cl)c([N+](=O)[O-])c1 | 272 to 275
30 | CCN(CC)C(=O)c1ccc[nH]1 | 78.6 to 79.9
31 | Cc1c(C)c2c(c(C)c1OCc1ccccc1)C(CN1CCCC1CO)C(C)(C)O2 (mixture of isomers) | 99 to 101
32 | O=C(Nc1ccc(C(=O)N2CCCc3cc(F)ccc32)cc1)c1cc(Cl)cc(Cl)c1 | 206
33 | O=C1OC(c2ccccc2)=NC1Cc1ccccc1 (racemic) | 70 to 72
34 | O=c1[nH]c(=O)n(C2CC(Cl)C(CCl)O2)cc1C=CBr (stereo not given) | 184
35 | O=C(O)Cc1nc(-c2ccc(Cl)cc2)oc1-c1ccsc1 | 218 to 219
36 | CCc1cc([N+](=O)[O-])c(=O)[nH]c1COCc1ccccc1 | 157 to 158
37 | COc1ccc(CCN2C=CC=C3C2=Nc2cc(C(F)(F)F)ccc2S(=O)(=O)N3C)cc1 | 43 to 44
38 | O=C(O)CCCN1C(=O)c2ccc([N+](=O)[O-])cc2C1=O | 176 to 178
39 | O=C(NC1CCCCC1)C(Br)c1ccccc1 (stereo not given) | 126 to 127
40 | CN(C)Cc1nc(CSCCNC(=C[N+](=O)[O-])NCC(O)c2ccccc2)cs1 (stereo not given) | 100 to 101
41 | O=C1Nc2ccc(Cl)cc2C1(O)c1cccc2c1OCO2 (stereo not given) | 271
42 | COC(=O)CCc1ccc(S(=O)(=O)c2ccc(NC(=O)c3ccc(Cl)c(Cl)c3)cn2)cc1 | 165 to 166
43 | Cc1nc(Cn2c(=O)sc3cc(F)c(N=C=S)cc32)no1 | 168 to 170
44 | Cc1c2c(c(C(O)c3ccc(C(C)C)cc3)c(C)c1NC(=O)OC(C)(C)C)OC(C)C2 (stereo not given) | 141 to 142
45 | CCOC(=O)c1cn(NC=O)c2c(OCc3ccccc3)c(F)c(F)cc2c1=O | 188 to 190
46 | CN1C(=O)C2C3C=CC(C3)C2(c2ccc3c(c2)CCCC3)C1=O (stereo not given) | 78 to 86
47 | C[C@]12CC[C@H]3[C@@H](CCC4=CC(=O)CC[C@@H]43)[C@@H]1CCC21CC(O)CO1 (stereo not given in full) | 149 to 154
48 | O=C(c1cccc(Cl)c1)c1cc(F)nc2ccccc12 | 93.2
49 | CCCCc1nn(-c2cc([N+](=O)[O-])ccc2Cl)c(C(=O)O)c1Cc1ccc(Br)cc1F | > 55
50 | N=C1SCCN1c1ccccc1[N+](=O)[O-] | 127

Source: a melting point compilation (Tetko et al.; mined from patent text by program, amines drawn as free bases though some values may be those of a salt)
